Source: BindingDB's records for doi:10.1021/acs.jnatprod.9b00648 (Seoul National University, 2019)

Assay: Inhibition of VEGFR2 in HUVEC assessed as inhibition of VEGF-induced tube formation incubated for 8 hrs by inverted microscopic method

## C/C=C(\C)C(=O)O[C@@H]1C2=C(C)C(=O)N[C@]2(O)C[C@@]2(C)O[C@@H]2CC[C@@]2(C)O[C@H]12
  IC50: 40.4 µM
